This is an account of results in ChEMBL document CHEMBL5725355, “Methods for treating seizure disorders and pain” (2017).

Assay [1] is described as follows: (§1) Voltage-Clamp Assay: All experiments were conducted at room temperature (22-24° C.) with an EPC-10 amplifier and Pulse software (HEKA, Lambrecht/Pfalz, Germany) in the whole-cell mode of the patch-clamp technique. Human embryonic kidney (HEK)-293 cell lines stably expressing hNav1.1, hNav1.5, hNav1.7 channels (generously provided by Dr. Christopher Lossin, University of California Davis), hNav1.4 (Frank Lehmann-Horn, University of Ulm), or hKv2.1 channels (James Trimmer, University of California Davis) were bathed in extracellular solution containing (in mM): 160 NaCl; 4.5 KCl; 1 MgCl2; 2 CaCl2; 10 HEPES [pH was adjusted to 7.4 using NaOH (310 mOsm)]. Pipettes were filled with intracellular solution containing (in mM): 145 KF; 2 MgCl2; 10 ethylene glycol tetraacetic acid; 10 HEPES (pH adjusted to 7.2 with KOH; 300 mOsm). Neuroblastoma N1E-115 cells (ATCC, Manassa, Va., USA) expressing Nav1.2 were patched with a CsF internal solution consisting of (in mM): 10 NaF; 110 CsF; 20 CsCl; 2 ethylene glycol tetraacetic acid; 10 HEPES (CsOH to pH 7.35; 300 mOsm). All pipette tip resistances were 2-4 MΩ. Series resistances of 3-10 MΩ were compensated 40-80%. All cells were voltage-clamped to a holding potential of −90 mV unless otherwise specified. The sampling frequency was 5 kHz. Na+ currents were elicited by 30-ms pulse to 0 mV from −90 mV applied every 10 s. […]. In general terms: Patch clamp records ionic current or voltage across a cell membrane.

The nature of assay [2]: as §1. The source holds these as a separate data set.
Assay [3] in a line: as §1. This is another data set of the same source.
Assay [4] is described as follows: as §1. This is another data set of the same source.
The nature of assay [5]: as §1. This is another data set of the same source.
Assay [6] in a line: as §1. This is another data set of the same source.

One may read the EC50 as the concentration that produces a half-maximal response. As for `Nc1nc2ccc(SC(F)(F)F)cc2s1`, the EC50 in assay [1] was determined as 5.8 µM; in assay [2], 2.2 µM; in assay [3], 22.3 µM; in assay [4], 6.9 µM; in assay [5] it was 4.5 µM; in assay [6], 7.9 µM.
